Measured values from PubChem BioAssay AID1745844 (Carcinogenic Potency Database (CPDB), 2022).
Activity calls are given as the source filed them. The rule behind the calls is not given here.

Test system: rodent lifetime carcinogenesis bioassay, tumor incidence TD50
Experiment: carcinogenic potency in animals, long-term in vivo studies, CPDB compilation (AID 1745844)

## CC(=O)Nc1nc(NC(C)=O)nc(-c2ccc([N+](=O)[O-])o2)n1
rat, strain Sprague-Dawley, females, in feed, site: any site (literature study), lesion: several types, types named in the paper, dosed 46 weeks, study length 66 weeks
  TD50: 12.8 mg/kg/day
rat, strain Sprague-Dawley, females, in feed, site: mammary gland, lesion: adenocarcinoma, dosed 46 weeks, study length 66 weeks
  TD50: 29 mg/kg/day
rat, strain Sprague-Dawley, females, in feed, site: mammary gland, lesion: several types, types named in the paper, dosed 46 weeks, study length 66 weeks
  TD50: 14.1 mg/kg/day

## Cc1c(N)cccc1N
mouse, strain B6C3F1, females, in feed, site: any site (literature study), lesion: several types, types named in the paper, dosed 103 weeks, study length 105 weeks
  TD50: 75.9 mg/kg/day
mouse, strain B6C3F1, females, in feed, site: liver, lesion: hepatocellular adenoma + hepatocellular carcinoma + neoplastic nodule, dosed 103 weeks, study length 105 weeks
  TD50: 129 mg/kg/day
mouse, strain B6C3F1, females, in feed, site: liver, lesion: hepatocellular carcinoma, dosed 103 weeks, study length 105 weeks
  TD50: 181 mg/kg/day (inactive)
mouse, strain B6C3F1, males, in feed, site: all sites, lesion: lymphoma, dosed 103 weeks, study length 104 weeks
  TD50: 20.5 mg/kg/day (inactive)
rat, strain Fischer 344, females, in feed, site: any site (literature study), lesion: several types, types named in the paper, dosed 103 weeks, study length 105 weeks
  carcinogen call: negative (inactive)
rat, strain Fischer 344, females, in feed, site: liver, lesion: hepatocellular adenoma + hepatocellular carcinoma + neoplastic nodule, dosed 103 weeks, study length 105 weeks
  TD50: 455 mg/kg/day
rat, strain Fischer 344, males, in feed, site: liver, lesion: hepatocellular adenoma + hepatocellular carcinoma + neoplastic nodule, dosed 103 weeks, study length 104 weeks
  TD50: 117 mg/kg/day
rat, strain Fischer 344, males, in feed, site: liver, lesion: hepatocellular carcinoma + neoplastic nodule, dosed 103 weeks, study length 104 weeks
  TD50: 117 mg/kg/day (inactive)
rat, strain Fischer 344, males, in feed, site: pancreatic islets, lesion: islet-cell adenoma, dosed 103 weeks, study length 104 weeks
  TD50: 140 mg/kg/day

## CN(C)C(=O)NC1CC2CC1C1CCCC21 (stereo not drawn)
mouse, strain B6AKF1, females, oral dosing, site: any site (literature study), lesion: several types, types named in the paper, dosed 76 weeks, study length 76 weeks
  carcinogen call: negative (inactive)
mouse, strain B6AKF1, females, oral dosing, site: liver, lesion: hepatoma, dosed 76 weeks, study length 76 weeks
  carcinogen call: negative (inactive)
mouse, strain B6AKF1, females, oral dosing, site: lung, lesion: adenoma, dosed 76 weeks, study length 76 weeks
  carcinogen call: negative (inactive)
mouse, strain B6AKF1, males, oral dosing, site: any site (literature study), lesion: several types, types named in the paper, dosed 76 weeks, study length 76 weeks
  carcinogen call: negative (inactive)
mouse, strain B6AKF1, males, oral dosing, site: liver, lesion: hepatoma, dosed 76 weeks, study length 76 weeks
  carcinogen call: negative (inactive)
mouse, strain B6AKF1, males, oral dosing, site: lung, lesion: adenoma, dosed 76 weeks, study length 76 weeks
  carcinogen call: negative (inactive)
mouse, strain B6C3F1, females, oral dosing, site: any site (literature study), lesion: several types, types named in the paper, dosed 76 weeks, study length 76 weeks
  TD50: 1230 mg/kg/day (inactive)
mouse, strain B6C3F1, females, oral dosing, site: liver, lesion: hepatoma, dosed 76 weeks, study length 76 weeks
  carcinogen call: negative (inactive)
mouse, strain B6C3F1, females, oral dosing, site: lung, lesion: adenoma, dosed 76 weeks, study length 76 weeks
  TD50: 1230 mg/kg/day (inactive)
mouse, strain B6C3F1, males, oral dosing, site: any site (literature study), lesion: several types, types named in the paper, dosed 76 weeks, study length 76 weeks
  TD50: 259 mg/kg/day (inactive)
mouse, strain B6C3F1, males, oral dosing, site: liver, lesion: hepatoma, dosed 76 weeks, study length 76 weeks
  TD50: 359 mg/kg/day (inactive)
mouse, strain B6C3F1, males, oral dosing, site: lung, lesion: several types, types named in the paper, dosed 76 weeks, study length 76 weeks
  carcinogen call: negative (inactive)

## Nc1ccc(Cc2ccc(N)cc2)cc1
mouse, strain B6C3F1, females, in drinking water, site: all sites + liver + thyroid gland, lesion: malignant lymphoma, histiocytic type + malignant lymphoma, mixed type + malignant lymphoma, undifferentiated type + malignant, dosed 103 weeks, study length 104 weeks
  TD50: 32.6 mg/kg/day
mouse, strain B6C3F1, females, in drinking water, site: all sites, lesion: malignant lymphoma, histiocytic type + malignant lymphoma, mixed type + malignant lymphoma, undifferentiated type + malignant, dosed 103 weeks, study length 104 weeks
  TD50: 64.7 mg/kg/day
mouse, strain B6C3F1, females, in drinking water, site: any site (literature study), lesion: several types, types named in the paper, dosed 103 weeks, study length 104 weeks
  TD50: 52.1 mg/kg/day
mouse, strain B6C3F1, females, in drinking water, site: liver, lesion: hepatocellular adenoma + hepatocellular carcinoma + neoplastic nodule, dosed 103 weeks, study length 104 weeks
  TD50: 59.3 mg/kg/day
mouse, strain B6C3F1, females, in drinking water, site: liver, lesion: hepatocellular adenoma + hepatocellular carcinoma, dosed 103 weeks, study length 104 weeks
  TD50: 59.3 mg/kg/day
mouse, strain B6C3F1, females, in drinking water, site: liver, lesion: hepatocellular adenoma, dosed 103 weeks, study length 104 weeks
  TD50: 135 mg/kg/day
mouse, strain B6C3F1, females, in drinking water, site: liver, lesion: hepatocellular carcinoma, dosed 103 weeks, study length 104 weeks
  TD50: 137 mg/kg/day
mouse, strain B6C3F1, females, in drinking water, site: lung, lesion: alveolar/bronchiolar adenoma + alveolar/bronchiolar carcinoma, dosed 103 weeks, study length 104 weeks
  TD50: 268 mg/kg/day
mouse, strain B6C3F1, females, in drinking water, site: lung, lesion: alveolar/bronchiolar adenoma, dosed 103 weeks, study length 104 weeks
  TD50: 327 mg/kg/day
mouse, strain B6C3F1, females, in drinking water, site: thyroid gland, lesion: follicular-cell adenoma + follicular-cell carcinoma, dosed 103 weeks, study length 104 weeks
  TD50: 128 mg/kg/day
mouse, strain B6C3F1, females, in drinking water, site: thyroid gland, lesion: follicular-cell adenoma, dosed 103 weeks, study length 104 weeks
  TD50: 150 mg/kg/day
mouse, strain B6C3F1, males, in drinking water, site: adrenal gland + liver + thyroid gland, lesion: pheochromocytoma + hepatocellular carcinoma + follicular-cell adenoma, dosed 103 weeks, study length 104 weeks
  TD50: 28.7 mg/kg/day
mouse, strain B6C3F1, males, in drinking water, site: adrenal gland, lesion: pheochromocytoma, dosed 103 weeks, study length 104 weeks
  TD50: 70 mg/kg/day
mouse, strain B6C3F1, males, in drinking water, site: any site (literature study), lesion: several types, types named in the paper, dosed 103 weeks, study length 104 weeks
  TD50: 47.4 mg/kg/day
mouse, strain B6C3F1, males, in drinking water, site: liver, lesion: hepatocellular adenoma + hepatocellular carcinoma + neoplastic nodule, dosed 103 weeks, study length 104 weeks
  TD50: 17 mg/kg/day
mouse, strain B6C3F1, males, in drinking water, site: liver, lesion: hepatocellular adenoma + hepatocellular carcinoma, dosed 103 weeks, study length 104 weeks
  TD50: 17 mg/kg/day
mouse, strain B6C3F1, males, in drinking water, site: liver, lesion: hepatocellular carcinoma, dosed 103 weeks, study length 104 weeks
  TD50: 22.3 mg/kg/day
mouse, strain B6C3F1, males, in drinking water, site: thyroid gland, lesion: follicular-cell adenoma, dosed 103 weeks, study length 104 weeks
  TD50: 88.4 mg/kg/day
rat, strain Fischer 344, females, in drinking water, site: any site (literature study), lesion: several types, types named in the paper, dosed 103 weeks, study length 105 weeks
  TD50: 277 mg/kg/day
rat, strain Fischer 344, females, in drinking water, site: liver, lesion: hepatocellular adenoma + hepatocellular carcinoma + neoplastic nodule, dosed 103 weeks, study length 105 weeks
  TD50: 118 mg/kg/day
rat, strain Fischer 344, females, in drinking water, site: thyroid gland, lesion: c-cell adenoma + c-cell carcinoma, dosed 103 weeks, study length 105 weeks
  TD50: 70 mg/kg/day
rat, strain Fischer 344, females, in drinking water, site: thyroid gland, lesion: c-cell adenoma + follicular-cell adenoma, dosed 103 weeks, study length 105 weeks
  TD50: 22 mg/kg/day
rat, strain Fischer 344, females, in drinking water, site: thyroid gland, lesion: c-cell adenoma, dosed 103 weeks, study length 105 weeks
  TD50: 73.7 mg/kg/day
rat, strain Fischer 344, females, in drinking water, site: thyroid gland, lesion: follicular-cell adenoma + follicular-cell carcinoma, dosed 103 weeks, study length 105 weeks
  TD50: 27.2 mg/kg/day
rat, strain Fischer 344, females, in drinking water, site: thyroid gland, lesion: follicular-cell adenoma, dosed 103 weeks, study length 105 weeks
  TD50: 33.5 mg/kg/day
rat, strain Fischer 344, males, in drinking water, site: liver + thyroid gland, lesion: neoplastic nodule + follicular-cell carcinoma, dosed 103 weeks, study length 105 weeks
  TD50: 12.5 mg/kg/day
rat, strain Fischer 344, males, in drinking water, site: liver, lesion: hepatocellular adenoma + hepatocellular carcinoma + neoplastic nodule, dosed 103 weeks, study length 105 weeks
  TD50: 14.1 mg/kg/day
rat, strain Fischer 344, males, in drinking water, site: liver, lesion: neoplastic nodule, dosed 103 weeks, study length 105 weeks
  TD50: 14.3 mg/kg/day
rat, strain Fischer 344, males, in drinking water, site: thyroid gland, lesion: follicular-cell adenoma + follicular-cell carcinoma, dosed 103 weeks, study length 105 weeks
  TD50: 49.5 mg/kg/day
rat, strain Fischer 344, males, in drinking water, site: thyroid gland, lesion: follicular-cell carcinoma, dosed 103 weeks, study length 105 weeks
  TD50: 85.4 mg/kg/day

## CCOc1nc2cccc(C(=O)OC(C)OC(=O)OC3CCCCC3)c2n1Cc1ccc(-c2ccccc2-c2nn[nH]n2)cc1 (stereo not drawn)
rat, strain Fischer 344/Jcl, females, in feed, site: any site (literature study), lesion: several types, types named in the paper, dosed 104 weeks, study length 104 weeks
  TD50: 11200 mg/kg/day (inactive)
rat, strain Fischer 344/Jcl, females, in feed, site: liver, lesion: hepatocellular adenoma, dosed 104 weeks, study length 104 weeks
  carcinogen call: negative (inactive)
rat, strain Fischer 344/Jcl, males, in feed, site: any site (literature study), lesion: several types, types named in the paper, dosed 104 weeks, study length 104 weeks
  carcinogen call: negative (inactive)
rat, strain Fischer 344/Jcl, males, in feed, site: liver, lesion: hepatocellular adenoma, dosed 104 weeks, study length 104 weeks
  carcinogen call: negative (inactive)
